The target of one assay is T1, full length human PPAR-γ (Homo sapiens, UniProt P37231).
T1 construct: host or cells: Chinese hamster ovary (CHO) cell lines
T1 sequence (P37231 1-505): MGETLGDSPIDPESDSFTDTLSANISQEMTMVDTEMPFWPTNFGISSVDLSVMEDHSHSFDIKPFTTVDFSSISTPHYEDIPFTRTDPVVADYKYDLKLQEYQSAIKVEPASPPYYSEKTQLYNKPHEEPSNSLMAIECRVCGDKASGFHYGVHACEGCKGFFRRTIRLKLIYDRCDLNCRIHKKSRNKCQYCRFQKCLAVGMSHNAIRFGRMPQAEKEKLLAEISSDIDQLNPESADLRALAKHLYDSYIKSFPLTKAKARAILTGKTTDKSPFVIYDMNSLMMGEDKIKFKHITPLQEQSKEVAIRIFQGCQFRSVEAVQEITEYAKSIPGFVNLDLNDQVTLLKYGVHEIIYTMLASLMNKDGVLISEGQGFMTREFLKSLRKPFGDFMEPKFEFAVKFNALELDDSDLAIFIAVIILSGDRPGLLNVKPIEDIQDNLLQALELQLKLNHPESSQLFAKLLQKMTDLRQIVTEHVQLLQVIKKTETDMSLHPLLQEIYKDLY
The assay is described as follows: PathHunter NHR Protein Interaction assay, PPAR-γ agonist activity (CHO cells). The class given is cell-based. To be noted: for Emax: CHO, PPAR-gamma, free fatty acid form, normalized to control compound (Troglitazone), read-out: Maximum Response.

In a further assay the target is T2, full length human PPAR-α (Homo sapiens, UniProt Q07869).
T2 construct: host or cells: Chinese hamster ovary (CHO) cell lines
T2 sequence (Q07869 1-468): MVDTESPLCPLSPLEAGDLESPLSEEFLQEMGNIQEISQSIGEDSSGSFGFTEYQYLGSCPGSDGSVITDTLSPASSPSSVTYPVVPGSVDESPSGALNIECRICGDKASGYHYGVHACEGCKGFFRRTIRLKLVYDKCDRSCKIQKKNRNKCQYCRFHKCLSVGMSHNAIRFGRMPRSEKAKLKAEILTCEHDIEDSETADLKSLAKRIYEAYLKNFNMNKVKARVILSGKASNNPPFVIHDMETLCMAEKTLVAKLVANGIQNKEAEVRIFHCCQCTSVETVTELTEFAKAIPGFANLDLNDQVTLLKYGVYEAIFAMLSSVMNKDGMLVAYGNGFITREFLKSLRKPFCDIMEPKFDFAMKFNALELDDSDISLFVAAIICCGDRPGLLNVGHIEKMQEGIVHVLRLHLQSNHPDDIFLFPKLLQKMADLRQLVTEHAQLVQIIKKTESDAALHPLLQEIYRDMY
Briefly: PathHunter NHR Protein Interaction assay, PPAR-α agonist activity (CHO cells). Conditions: for Emax: CHO, PPAR-alpha, free fatty acid form, normalized to control compound (GW7647), read-out: Maximum Response; for PPAR-α EC50 % improvement over FFA form: compared to free fatty acid form; for PPAR-α agonist maximum activity: text of Example 3; for EC50: Table 5, read-out: Cell-Based PPAR Agonist Activity Half Maximal Effective Concentration (EC50) PPAR-α. Type of assay: cell-based.

Assay [1] addresses T3, CB1 receptor (Homo sapiens, UniProt P21554). To be noted: for CB1-agonist maximum activity: positive control CP 55940 assigned 100% activity.
Description: (§1) Briefly, a variety of standardized and optimized functional assays were used to assess and compare the selected compounds' pharmacologic targets, including G protein-coupled receptors (ADORA2A, ADRA1A, ADRA2A, ADRB1, ADRB2, CB1, CB2, CCK1, D1, D2S, ETA, H1, H2, M1 M2, M3, OPRD1, OPRK1, OPRM1, 5HTR1A, 5HTR1B, 5HTR2A, 5HTR2B, AVPR1A), kinases (LCK, INSR, VEGFR2, ROCK1), transporters (DAT, NET, SERT), ion channels (GABAA, 5-HT3, CA1.2, HERG, KVLQT1/MINK, NA1.5, NMDAR1/2B, NACHR), nuclear receptors (AR, GR), and non-kinase enzymes (COX1, COX2, ACHE, MAO-A, PDE3A, PDE4D2). […] Maximum activity (%) was also determined based on comparisons with internal positive controls, which were assigned 100% activity.
Another assay addresses T4, full length human PPAR-δ (Homo sapiens, UniProt Q03181).
T4 construct: host or cells: Chinese hamster ovary (CHO) cell lines
T4 sequence (Q03181 1-441): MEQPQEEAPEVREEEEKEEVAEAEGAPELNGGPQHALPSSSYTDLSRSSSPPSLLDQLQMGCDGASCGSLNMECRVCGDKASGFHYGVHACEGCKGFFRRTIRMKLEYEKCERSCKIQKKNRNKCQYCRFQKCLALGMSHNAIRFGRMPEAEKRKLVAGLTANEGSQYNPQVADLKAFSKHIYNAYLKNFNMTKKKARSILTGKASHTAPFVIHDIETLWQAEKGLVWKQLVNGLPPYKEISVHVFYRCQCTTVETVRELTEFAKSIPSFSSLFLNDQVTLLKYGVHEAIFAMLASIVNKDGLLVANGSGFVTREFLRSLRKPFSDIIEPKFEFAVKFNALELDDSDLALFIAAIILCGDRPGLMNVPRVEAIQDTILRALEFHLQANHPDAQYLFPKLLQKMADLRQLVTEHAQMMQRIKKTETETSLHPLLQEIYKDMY
The assay is described as follows: PathHunter NHR Protein Interaction assay, PPAR-δ agonist activity (CHO cells). The class given is cell-based. To be noted: for PPAR-δ EC50 % improvement over FFA form: compared to free fatty acid form; for Emax: CHO, free fatty acid form, normalized to control compound (L-165,041), read-out: Maximum Response.

Assay [2] concerns the target T3, CB1 receptor. The assay is described as follows: cell-based.
Description: as §1
The next assay concerns the target OPRM1 (Homo sapiens, UniProt P35372).
The next assay has as its target cannabinoid receptor 1 (Homo sapiens, UniProt P21554). The assay is described as follows: Cannabinoid receptor 1 agonist activity (Example 4). To be noted: for % maximum activity compared to positive control (CP55940): cannabinoid receptor 1 agonist (Table 6).
For assay [3], the system named is G protein-coupled receptors, kinases, transporters, ion channels, nuclear receptors, non-kinase enzymes. Briefly: SAFETYscan E/IC50 ELECT panel, agonist and antagonist activities across 78 assays.
Description: as §1
A further assay concerns diet-induced obese mice. The assay is described as follows: Diet-induced obese mice on high fat diet, daily oral gavage for 12 weeks. To be noted: for Cholesterol / Glucose: Results (Day 84), 6 h fasted samples.

Like-named read-outs stand apart in the source and are kept apart here.

Sequence of cannabinoid receptor 1 (P21554 whole entry, species assumed): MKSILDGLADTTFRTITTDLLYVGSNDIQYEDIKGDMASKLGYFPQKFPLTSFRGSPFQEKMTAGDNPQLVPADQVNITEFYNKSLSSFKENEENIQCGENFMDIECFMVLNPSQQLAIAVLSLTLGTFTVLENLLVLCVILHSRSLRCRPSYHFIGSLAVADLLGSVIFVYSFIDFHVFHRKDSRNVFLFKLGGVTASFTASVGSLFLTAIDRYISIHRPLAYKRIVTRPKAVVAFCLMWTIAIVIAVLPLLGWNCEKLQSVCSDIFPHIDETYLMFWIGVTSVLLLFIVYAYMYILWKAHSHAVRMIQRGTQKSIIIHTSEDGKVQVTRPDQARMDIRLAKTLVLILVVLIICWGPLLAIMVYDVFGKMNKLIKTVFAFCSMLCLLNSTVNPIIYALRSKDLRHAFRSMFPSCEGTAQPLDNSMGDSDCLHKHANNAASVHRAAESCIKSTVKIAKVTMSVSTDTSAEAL
T3 sequence (P21554 whole entry): as the sequence (P21554 whole entry, species assumed) above
Sequence of OPRM1 (P35372 whole entry): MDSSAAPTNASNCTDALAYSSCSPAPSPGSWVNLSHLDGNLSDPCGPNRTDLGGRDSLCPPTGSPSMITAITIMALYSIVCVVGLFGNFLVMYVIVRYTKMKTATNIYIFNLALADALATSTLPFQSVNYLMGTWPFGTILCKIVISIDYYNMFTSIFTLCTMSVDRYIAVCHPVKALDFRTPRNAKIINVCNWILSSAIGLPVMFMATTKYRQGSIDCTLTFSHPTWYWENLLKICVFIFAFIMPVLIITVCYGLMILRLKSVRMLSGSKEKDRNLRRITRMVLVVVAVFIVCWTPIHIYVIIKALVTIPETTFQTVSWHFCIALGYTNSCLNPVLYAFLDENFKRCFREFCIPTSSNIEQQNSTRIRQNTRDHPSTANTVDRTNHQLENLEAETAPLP
Description for OPRM1: as §1
Protocol for diet-induced obese mice: Forty C57BL/6J mice were fed a high fat diet (HFD) (D12492, 60% kcals fat) for 8 weeks. Study mice were then divided into the following four groups of ten: vehicle controls, low dose C17:0-treated (5 mg/kg body weight), high-dose C17:0-treated (50 mg/kg body weight), and low-dose C15:0-treated (5 mg/kg body weight).
“Results” values are based on 6 h fasted samples.
Protocol for full length human PPAR-α: (§2) PPAR-α, PPAR-δ, and PPAR-γ agonist activities were measured using PathHunter Nuclear Hormone Receptor (NHR) Protein Interaction (Pro) assays (DiscoverX, Freemont, California). Briefly, Chinese hamster ovary (CHO) cell lines were used to monitor the activation of PPAR-α, PPAR-δ, and PPAR-γ in a homogenous, non-imaging assay format using Enzyme Fragment Complementation (EFC). The NHR Pro assay was based on detection of protein-protein interactions between activated, full length PPAR-α, PPAR-δ, and PPAR-γ proteins and a nuclear fusion protein containing Steroid Receptor Co-activator Peptide (SRCP) domains with one or more canonical LXXLL interaction motifs. PPAR-α, PPAR-δ, and PPAR-γ were tagged with the ProLink component of the EFC assay system, and the SRCP domain was fused to the enzyme acceptor component (EA) expressed in the nucleus. When bound by ligand, PPAR-α, PPAR-δ, or PPAR-γ migrated to the nucleus and recruited the SRCP domain, whereby complementation occurred, generating a unit of active β-Galactosidase (β-Gal) and production of chemiluminescent signal. […] Percentage activity was calculated using the following formula: % Activity=100%×(mean RLU of test sample−mean RLU of vehicle control)/(mean MAX control ligand−mean RLU of vehicle control).
Protocol for full length human PPAR-γ: as §2
Protocol for full length human PPAR-δ: as §2

As for `CCCCCCCCCCCCCCCC(=O)O` [C16:0, palmitic acid, reference compound], the values for the Emax on full length human PPAR-γ and at full length human PPAR-α were 4.7% and 56.1%, respectively.

On to `CCCCCCCCCCCCCC(CC)C(=O)O` (centres unmarked) [2-ethyl-C15:0, 2-ethylpentadecanoic acid], for which the “PPAR-γ EC50 % improvement over FFA form” value on full length human PPAR-γ (compared to free fatty acid form) is listed as above 49%. Further, the PPAR-γ agonist activity entry at full length human PPAR-γ (in words) was “acquired PPAR-γ agonist activity”. Further, the CB1-agonist maximum activity at CB1 receptor [1] came out at 53.7%. The “PPAR-δ EC50 % improvement over FFA form” value at full length human PPAR-δ is on record as 89%. Further, the “PPAR-δ agonist maximum activity” value at full length human PPAR-δ (text of Example 3) is on record as 72.4%. Moreover, the EC50 came out at 28 nM at full length human PPAR-δ (text of Example 3, read-out: PPAR-δ agonist EC50) and 27 nM on CB1 receptor [2]. Moreover, the “PPAR-α EC50 % improvement over FFA form” value at full length human PPAR-α is 90%. Also, the “PPAR-α agonist maximum activity” value on full length human PPAR-α is given as 170%.

Turning to `CCCCCCCCCCCCCCc1nnn[nH]1` [1-tetrazole-C15:0], the “OPRM1 antagonist maximum activity” value on OPRM1 came out at 46.2%. For the same compound, the IC50 (as a rule, the concentration needed to halve the response being measured) on OPRM1 (read-out: OPRM1 antagonist IC50, ten-point concentration curves) came to 3.9 µM; at CB1 receptor [1] (read-out: CB1-agonist activity IC50, ten-point concentration curves), 1300 nM. Further, the EC50 is above 100 µM at full length human PPAR-γ (Table 5, read-out: Cell-Based PPAR Agonist Activity Half Maximal Effective Concentration (EC50) PPAR-γ); 500 nM on full length human PPAR-δ (Table 5, read-out: Cell-Based PPAR Agonist Activity Half Maximal Effective Concentration (EC50) PPAR-δ); 2.6 µM on full length human PPAR-α. This compound displayed a CB1-agonist maximum activity on CB1 receptor [1] of 48.3%. Besides, the “PPAR-δ EC50 % improvement over FFA form” value at full length human PPAR-δ came out at 81%. For the same compound, at full length human PPAR-δ (text of Example 3), the “PPAR-δ agonist maximum activity” value is given as 18%. Besides, the “PPAR-α EC50 % improvement over FFA form” value at full length human PPAR-α is on record as 77%. Also, the “PPAR-α agonist maximum activity” value at full length human PPAR-α was determined as 32%.

Consider `CCCCCCCCCCCCCC(CC)(CC)C(=O)O` [diethyl-C15:0], for which, at cannabinoid receptor 1, the EC50 stood at 3300 nM and the “% maximum activity compared to positive control (CP55940)” value is 93%.

`CCCCCCCCCCCCCC(=O)O` [C14:0, myristic acid, reference compound]: on full length human PPAR-γ, the Emax was 19%. On full length human PPAR-α, the Emax stood at 74.1% and the EC50 turned out to be 8.4 µM.

For `CCCCCCCCCCCCCC(C)C(=O)O` (centres unmarked) [2-methyl-C15:0, 2-methylpentadecanoic acid], in assay [3], the “additional activity across 78 assays” value was “no additional activity was detected”.

`CCCCCCCCCCCCCCC(=O)O` [C15:0, pentadecanoic acid]: the “metabolic syndrome (glucose, insulin, cholesterol, proinflammatory cytokines) compared to controls” value with diet-induced obese mice (5 mg/kg, vs vehicle control group) is “attenuated metabolic syndrome”. This compound displayed a Cholesterol in the assay with diet-induced obese mice (5 mg/kg daily oral) of 183 ± 25 mg/dL. In the assay with diet-induced obese mice (5 mg/kg daily oral), this compound registered a Glucose of 245 ± 37 mg/dL. In addition, the “additional activity across 78 assays” value in assay [3] is listed as “no additional activity was detected”. Also, the figures for the Emax on full length human PPAR-γ, on full length human PPAR-δ (PPAR-delta) and at full length human PPAR-α were 7%, 52.8% and 65.8%, respectively.

In the case of `CCCCCCCCCCCCOCC(=O)O` [3-oxa-C15:0, 2-(dodecyloxy)acetic acid], on cannabinoid receptor 1, the EC50 was determined as 570 nM and the “% maximum activity compared to positive control (CP55940)” value was 83%.

For the compound `CCCCCCCCCCCCCCCCC(=O)O` [C17:0, heptadecanoic acid], in the assay with diet-induced obese mice (C17:0 5 and 50 mg/kg, vs vehicle control group), the “metabolic syndrome compared to controls” value was “trended toward attenuated metabolic syndrome”. In addition, the results for the Cholesterol with diet-induced obese mice (5 mg/kg daily oral) and in the assay on diet-induced obese mice (50 mg/kg daily oral) were 197 ± 31 mg/dL and 187 ± 44 mg/dL, respectively. The Glucose was found to be 296 ± 23 mg/dL in the assay with diet-induced obese mice (5 mg/kg daily oral) and 282 ± 31 mg/dL in the assay on diet-induced obese mice (50 mg/kg daily oral). Moreover, the “proinflammatory cytokines and chemokines (TNF-α and MCP-1) compared to controls” value with diet-induced obese mice (high-dose 50 mg/kg, vs vehicle control group) was “significantly lower”. For the same compound, the Emax at full length human PPAR-γ was 1%; on full length human PPAR-δ (PPAR-delta), 39.8%; at full length human PPAR-α, 16.7%. For the same compound, the EC50 at full length human PPAR-δ (PPAR-delta, free fatty acid form (Table 4), read-out: EC50) amounted to 17400 nM.
